Measurements taken from US5942248A, “Pharmaceutical composition containing a low detergent effect bile salt and an active compound that undergoes biliary excretion and/or enterohepatic recycling” (priority 1992, dated 1999).
Read-outs that look alike come from different tables or passages of the source.

Experiments:
[1] = cited from earlier work
gastrointestinal mucosa = settings: in vivo; cited from earlier work
[2] = system: isolated perfused rat liver; settings: cited from earlier work
[3] = cited from earlier work; remark: listed apart in the source
[4] = cited from earlier work; remark: listed apart in the source
[5] = Stability of indomethacin in stored plasma samples; type: physicochemical; settings: -20° C.
Experimental: The medication was taken with approx. 250 ml of boiled tap water. The zero time blood samples were taken within a 5 min period preceding the administration of the medication. Subsequent samples were taken at 0.5, 1.0, 1.5, 2.0, 2.5, 3.0, 4.0, 6.0, 8.0, 10.0 and 12.0 h. Blood samples were collected into lithium heparin tubes, gently mixed and centrifuged at 2.0×10^3 g.min within 15min of collection. Separated plasma was transferred into a clean tube and stored at -20° C. After a one week interval, the subjects received the alternative medication and the blood sampling protocol was repeated. Plasma samples were analysed by the HPLC method described by S. K. Cole et al (1992) Int. J. Pharm. 80, 63-73.

[6] = pH 7.3 buffer, 37° C.; cited from earlier work
[7] = system: heart transplant patients; settings: cyclosporine-induced cholestasis; cited from earlier work
[8] = system: subjects receiving gallstone dissolution therapy; settings: rather than chenodeoxycholate; cited from earlier work
patients = settings: chronic active hepatitis, primary biliary cirrhosis, cystic fibrosis; cited from earlier work
[9] = system: mono-layer cultures of isolated rat hepatocytes; settings: cited from earlier work
rats = settings: induced by more detergent dihydroxy and trihydroxy bile acids; cited from earlier work
[10] = system: isolated human hepatocytes; settings: cited from earlier work
[11] = aqueous solution; cited from earlier work
[12] = system: isolated perfused rat liver; settings: cited from earlier work; remark: listed apart in the source
human erythrocytes = settings: cited from earlier work

CC1(C)S[C@@H]2[C@H](NC(=O)[C@H](N)c3ccccc3)C(=O)N2[C@H]1C(=O)O [ampicillin]
biliary excretion with exogenously added bile acids ([1]; variety of animal species): increased the biliary excretion

CC(=O)Oc1ccccc1C(=O)O [aspirin]
gastrointestinal bleeding / lesions (gastrointestinal mucosa): gastrointestinal bleeding

C=CC1=C(C)/C(=C/c2[nH]c(Cc3[nH]c(/C=C4\NC(=O)C(C)=C4C=C)c(C)c3CCC(=O)O)c(CCC(=O)O)c2C)NC1=O [bilirubin]
biliary excretion with exogenously added bile acids ([1]; in vivo): increased the biliary excretion

O=C1OC(c2ccc(O)c(S(=O)(=O)O)c2)(c2ccc(O)c(S(=O)(=O)O)c2)c2c(Br)c(Br)c(Br)c(Br)c21 [bromosulphthalein]
biliary excretion with exogenously added bile acids ([1]; variety of animal species): increased the biliary excretion

CN(C)CCCN1c2ccccc2Sc2ccc(Cl)cc21 [chlorpromiazine]
cholestasis caused [2]: drug-induced cholestasis

C[C@]12CC[C@@H]3c4ccc(O)cc4CC[C@H]3[C@@H]1CC[C@@H]2O[C@@H]1O[C@H](C(=O)O)[C@@H](O)[C@H](O)[C@H]1O [estradiol-17-β-D-glucaronide]
cholestasis caused [2]: drug-induced cholestasis

CC1(C)C(/C=C/C=C/C=C/C=C2\N(CCCCS(=O)(=O)O)c3ccc4ccccc4c3C2(C)C)=[N+](CCCCS(=O)(=O)[O-])c2ccc3ccccc3c21 [indocyamine green]
biliary excretion with exogenously added bile acids ([1]; variety of animal species): increased the biliary excretion

COc1ccc2c(c1)c(CC(=O)O)c(C)n2C(=O)c1ccc(Cl)cc1 [indomethacin]
biliary clearance / enterohepatic circulation (in words) ([3]; in vivo): Extensive clearance of intact indomethacin into the bile
plasma clearance ([3]; in vivo): low plasma clearance
plasma half-life ([3]; in vivo): short plasma half-life
route of excretion ([3]; in vivo): mainly excreted via the hepato-biliaryroute
volume distribution ([3]; in vivo): low volume distribution
extent of enterohepatic recycling ([3]; man and animals): 21-41%
absorption rate in vivo with bile acids [4]: did not translate into an enhanced absorption rate in vivo
bioavailability with exogenously added bile acids ([4]; in vivo): increased the bioavailability of indomethacin
inter-subject variation with exogenously added bile acids ([4]; in vivo): decreasing inter-subject variation
degradation of indomethacin in stored plasma [5]: No degradation of indomethacin was detected
dissolution in presence of sodium deoxycholate and sodium cholate [6]: enhance the dissolution

CCC(Cc1c(I)cc(I)c(N)c1I)C(=O)O (centres unmarked) [iopanoic acid]
biliary excretion with exogenously added bile acids ([1]; in vivo): increased the biliary excretion

CCCCC1C(=O)N(c2ccccc2)N(c2ccccc2)C1=O [phenylbutazone]
dissolution in presence of sodium deoxycholate and sodium cholate [6]: enhance the dissolution

CN1C(C(=O)Nc2ccccn2)=C(O)c2ccccc2S1(=O)=O [piroxicam]
gastrointestinal bleeding / lesions (gastrointestinal mucosa): gastrointestinal bleeding

C[C@H](CCC(=O)O)[C@H]1CC[C@H]2[C@@H]3[C@@H](O)C[C@@H]4C[C@H](O)CC[C@]4(C)[C@H]3CC[C@]12C [ursodeoxycholate, Ursodeoxycholate]
plasma levels of liver enzymes and bilirubin [7]: reverse the elevated plasma levels of liver enzymes and bilirubin
reversal of drug-induced cholestasis ([2]; caused by estradiol-17-β-D-glaucaronide and chlorpromazine): reverse drug-induced cholestasis
gastrointestinal side-effects [8]: decreased incidence of gastrointestinal side-effects
hepatic enzyme levels in plasma [8]: lower hepatic intracellar enzyme levels
measures of hepatic damage (patients): reverse measures of hepatic damage
prevention of toxicological effects of more detergent bile acids [9]: prevent the toxicological effects of more detergent bile acids
biliary excretion of membrane enzymes (rats): reduces the biliary excretion of membrane enzymes
detergent effect in isolated human hepatocytes [10]: lack of detergent effect
CMC [11]: 1 to 3 mM
detergent effect in isolated perfused rat liver [12]: lack of detergent effect
prevention of toxicological effects of more detergent bile acids (human erythrocytes): prevent the toxicological effects of more detergent bile acids
